{"source": "paper PMC5218480", "about": "(PLoS ONE, 2017)", "test_system": "MV-4-11 cells", "test": "Gene expression microarray analysis (Affymetrix PrimeView) and GSEA", "format": "cell-based, human", "set-up": "RFU PODN (11730768_x_at) / Fold change /veh PODN (11730768_x_at) / RFU LINC00158 (11744669_a_at) / Fold change /veh LINC00158 (11744669_a_at) / RFU DUSP10 (11751237_a_at) / Fold change /veh DUSP10 (11751237_a_at) / RFU ID3 (11757404_x_at) / Fold change /veh ID3 (11757404_x_at) / RFU PLEKHG5 (11737974_s_at) / Fold change /veh PLEKHG5 (11737974_s_at) / RFU LRRC4B (11730491_at) / Fold change /veh LRRC4B (11730491_at) / RFU GIMAP4 (11747438_a_at) / Fold change /veh GIMAP4 (11747438_a_at) / RFU KRT8 (11758183_x_at) / Fold change /veh KRT8 (11758183_x_at) / RFU CNN1 (11734310_a_at) / Fold change /veh CNN1 (11734310_a_at) / RFU VPS37D (11726825_at) / Fold change /veh VPS37D (11726825_at) / RFU C10orf10 (11716522_x_at) / Fold change /veh C10orf10 (11716522_x_at) / RFU KIR2DL2 /// KIR2DL4 /// KIR2DL5A /// KIR2DL5B /// KIR2DS1 /// KIR2DS2 /// KIR2DS3 /// KIR2DS4 /// KIR3DL3 /// KIR3DL3 /// KIR3DS1 (11738374_at) / Fold change /veh KIR2DL2 /// KIR2DL4 /// KIR2DL5A /// KIR2DL5B /// KIR2DS1 /// KIR2DS2 /// KIR2DS3 /// KIR2DS4 /// KIR3DL3 /// KIR3DL3 /// KIR3DS1 (11738374_at) / RFU C1QL1 (11718748_at) / Fold change /veh C1QL1 (11718748_at) / RFU TMPRSS4 (11747572_a_at) / Fold change /veh TMPRSS4 (11747572_a_at) / RFU HAMP (11756126_x_at) / Fold change /veh HAMP (11756126_x_at) / RFU RNFT2 (11725882_a_at) / Fold change /veh RNFT2 (11725882_a_at) / RFU NR4A2 (11747474_a_at) / Fold change /veh NR4A2 (11747474_a_at) / RFU ABCC12 (11746883_a_at) / Fold change /veh ABCC12 (11746883_a_at) / RFU TMEM136 (11760407_x_at) / Fold change /veh TMEM136 (11760407_x_at) / RFU CLDN22 /// WWC2 (11732394_at) / Fold change /veh CLDN22 /// WWC2 (11732394_at) / RFU HLA-DPB1 (11760878_x_at) / Fold change /veh HLA-DPB1 (11760878_x_at) / RFU SPINT1 (11716480_a_at) / Fold change /veh SPINT1 (11716480_a_at) / RFU GAP43 (11754022_s_at) / Fold change /veh GAP43 (11754022_s_at) / RFU A4GNT (11735810_at) / Fold change /veh A4GNT (11735810_at) / RFU PRB3 (11715151_x_at) / Fold change /veh PRB3 (11715151_x_at) / RFU TUBB4B (11761932_at) / Fold change /veh TUBB4B (11761932_at) / RFU CAPN14 (11732068_a_at) / Fold change /veh CAPN14 (11732068_a_at) / RFU TMCC2 (11721928_a_at) / Fold change /veh TMCC2 (11721928_a_at) / RFU IRGQ (11745062_a_at) / Fold change /veh IRGQ (11745062_a_at) / RFU FAM174B (11720279_a_at) / Fold change /veh FAM174B (11720279_a_at) / RFU TMPRSS4 (11748680_a_at) / Fold change /veh TMPRSS4 (11748680_a_at) / RFU FAM212B (11763350_a_at) / Fold change /veh FAM212B (11763350_a_at) / RFU PLEKHG5 (11743358_a_at) / Fold change /veh PLEKHG5 (11743358_a_at) / RFU ZSCAN30 (11745921_a_at) / Fold change /veh ZSCAN30 (11745921_a_at) / RFU CMKLR1 (11741424_a_at) / Fold change /veh CMKLR1 (11741424_a_at) / RFU LOC101060620 /// MAPK8IP1 (11723275_at) / Fold change /veh LOC101060620 /// MAPK8IP1 (11723275_at) / RFU SPTSSB (11747773_x_at) / Fold change /veh SPTSSB (11747773_x_at) / RFU PRSS12 (11739890_at) / Fold change /veh PRSS12 (11739890_at) / RFU BIN1 (11741810_x_at) / Fold change /veh BIN1 (11741810_x_at) / RFU WNT11 (11732464_a_at) / Fold change /veh WNT11 (11732464_a_at) / RFU C10orf10 (11716521_a_at) / Fold change /veh C10orf10 (11716521_a_at) / RFU C5orf56 (11738089_at) / Fold change /veh C5orf56 (11738089_at) / RFU CYB561 (11721691_x_at) / Fold change /veh CYB561 (11721691_x_at) / RFU ANKRD19P (11752326_a_at) / Fold change /veh ANKRD19P (11752326_a_at) / RFU OR2T12 /// OR2T33 /// OR2T8 (11738714_s_at) / Fold change /veh OR2T12 /// OR2T33 /// OR2T8 (11738714_s_at) / RFU VCAN (11748164_a_at) / Fold change /veh VCAN (11748164_a_at) / RFU JSRP1 (11732532_at) / Fold change /veh JSRP1 (11732532_at) / RFU KRTAP10-11 (11738290_x_at) / Fold change /veh KRTAP10-11 (11738290_x_at) / RFU MYO3A (11730013_a_at) / Fold change /veh MYO3A (11730013_a_at) / RFU EBF3 (11725865_a_at) / Fold change /veh EBF3 (11725865_a_at) / RFU CAMK2N1 (11719241_x_at) / Fold change /veh CAMK2N1 (11719241_x_at) / RFU C5orf56 (11738088_a_at) / Fold change /veh C5orf56 (11738088_a_at) / RFU OLFML3 (11715873_a_at) / Fold change /veh OLFML3 (11715873_a_at) / RFU LOC100653217 /// NTM (11731650_a_at) / Fold change /veh LOC100653217 /// NTM (11731650_a_at) / RFU MAPK11 (11762145_a_at) / Fold change /veh MAPK11 (11762145_a_at) / RFU FIZ1 (11724087_x_at) / Fold change /veh FIZ1 (11724087_x_at) / RFU OASL (11726364_x_at) / Fold change /veh OASL (11726364_x_at) / RFU SOX15 (11748057_x_at) / Fold change /veh SOX15 (11748057_x_at) / RFU CD79A (11719716_a_at) / Fold change /veh CD79A (11719716_a_at) / RFU HIST1H1D (11736915_at) / Fold change /veh HIST1H1D (11736915_at) / RFU CASKIN2 (11723855_a_at) / Fold change /veh CASKIN2 (11723855_a_at) / RFU LOC730098 (11760151_x_at) / Fold change /veh LOC730098 (11760151_x_at) / RFU OR4N2 (11742367_at) / Fold change /veh OR4N2 (11742367_at) / RFU PRRT2 (11749266_a_at) / Fold change /veh PRRT2 (11749266_a_at) / RFU SNX32 (11753110_a_at) / Fold change /veh SNX32 (11753110_a_at) / RFU CDHR5 (11726645_a_at) / Fold change /veh CDHR5 (11726645_a_at) / RFU RCAN1 (11760418_a_at) / Fold change /veh RCAN1 (11760418_a_at) / RFU FAM167A (11723789_a_at) / Fold change /veh FAM167A (11723789_a_at) / RFU FAM26E (11764081_at) / Fold change /veh FAM26E (11764081_at) / RFU ISYNA1 (11749810_s_at) / Fold change /veh ISYNA1 (11749810_s_at) / RFU ACY1 (11761880_at) / Fold change /veh ACY1 (11761880_at) / RFU 11764098_at / Fold change /veh 11764098_at / RFU SAMD14 (11745864_x_at) / Fold change /veh SAMD14 (11745864_x_at) / RFU NPB (11741838_a_at) / Fold change /veh NPB (11741838_a_at) / RFU TMPRSS6 (11731388_a_at) / Fold change /veh TMPRSS6 (11731388_a_at) / RFU KRTAP10-2 (11738614_at) / Fold change /veh KRTAP10-2 (11738614_at) / RFU ARHGAP8 /// PRR5-ARHGAP8 (11727945_x_at) / Fold change /veh ARHGAP8 /// PRR5-ARHGAP8 (11727945_x_at) / RFU KRTAP5-7 /// NADSYN1 (11734609_at) / Fold change /veh KRTAP5-7 /// NADSYN1 (11734609_at) / RFU RASL12 (11751679_a_at) / Fold change /veh RASL12 (11751679_a_at) / RFU CDKN2B (11736163_a_at) / Fold change /veh CDKN2B (11736163_a_at) / RFU PRF1 (11729649_at) / Fold change /veh PRF1 (11729649_at) / RFU, ZNF638 /// ZNF638-IT1 / Fold change vs veh, ZNF638 /// ZNF638-IT1 / RFU, PANK3 / Fold change vs veh, PANK3 / RFU, SH3YL1 / Fold change vs veh, SH3YL1 / RFU, ZEB2 / Fold change vs veh, ZEB2 / RFU, NRIP1 / Fold change vs veh, NRIP1 / RFU, PTTG1IP / Fold change vs veh, PTTG1IP / RFU, CAPN2 / Fold change vs veh, CAPN2 / RFU, MED14 / Fold change vs veh, MED14 / RFU, SNORA58 / Fold change vs veh, SNORA58 / RFU, C1orf63 / Fold change vs veh, C1orf63 / RFU, LRRFIP1 / Fold change vs veh, LRRFIP1 / RFU, NDUFAF7 / Fold change vs veh, NDUFAF7 / RFU, SLC12A2 / Fold change vs veh, SLC12A2 / RFU, IBTK / Fold change vs veh, IBTK / RFU, ESF1 / Fold change vs veh, ESF1 / Fold change vs veh, TMEM50B / RFU, TAOK1 / Fold change vs veh, TAOK1 / RFU, ACBD3 / Fold change vs veh, ACBD3 / RFU, TMA16 / Fold change vs veh, TMA16 / RFU, RWDD3 / Fold change vs veh, RWDD3 / RFU, BCAT1 / Fold change vs veh, BCAT1 / RFU, EDEM3 / Fold change vs veh, EDEM3 / RFU, TMEM33 / Fold change vs veh, TMEM33 / RFU, WDR75 / Fold change vs veh, WDR75 / RFU, AHCTF1 / Fold change vs veh, AHCTF1 / RFU, TFRC / Fold change vs veh, TFRC / RFU, ZDHHC17 / Fold change vs veh, ZDHHC17 / RFU, NOM1 / Fold change vs veh, NOM1 / RFU, ARL8B / Fold change vs veh, ARL8B / RFU, ZBTB11 / Fold change vs veh, ZBTB11 / RFU, TAMM41 / Fold change vs veh, TAMM41 / RFU, KIAA1704 /// LOC100996395 / Fold change vs veh, KIAA1704 /// LOC100996395 / RFU, ING1 / Fold change vs veh, ING1 / RFU, TRMT61B / Fold change vs veh, TRMT61B / RFU, FUBP3 / Fold change vs veh, FUBP3 / RFU, TP53 / Fold change vs veh, TP53 / RFU, TNKS2 / Fold change vs veh, TNKS2 / RFU, ZFP14 / Fold change vs veh, ZFP14 / RFU, ACTR2 / Fold change vs veh, ACTR2 / RFU, PPP3R1 / Fold change vs veh, PPP3R1 / RFU, PIK3R1 / Fold change vs veh, PIK3R1 / RFU, HNRNPA1 / Fold change vs veh, HNRNPA1 / RFU, RNF170 / Fold change vs veh, RNF170 / RFU, ZNF28 / Fold change vs veh, ZNF28 / RFU, RNGTT / Fold change vs veh, RNGTT / RFU, OGT / Fold change vs veh, OGT / RFU, BRD1 / Fold change vs veh, BRD1 / RFU, MARS / Fold change vs veh, MARS / RFU, ZNF655 / Fold change vs veh, ZNF655 / RFU, FAHD1 / Fold change vs veh, FAHD1 / RFU, BDP1 / Fold change vs veh, BDP1 / RFU, LRRCC1 / Fold change vs veh, LRRCC1 / RFU, ARID1A / Fold change vs veh, ARID1A / RFU, ZNF146 / Fold change vs veh, ZNF146 / RFU, ZNF330 / Fold change vs veh, ZNF330 / RFU, GPN3 / Fold change vs veh, GPN3 / RFU, C9orf123 / Fold change vs veh, C9orf123 / RFU, N4BP2L2 / Fold change vs veh, N4BP2L2 / RFU, ARFIP1 / Fold change vs veh, ARFIP1 / RFU, FAM179B / Fold change vs veh, FAM179B / RFU, BCL10 / Fold change vs veh, BCL10 / RFU, UHRF1BP1L / Fold change vs veh, UHRF1BP1L / RFU, BET1 / Fold change vs veh, BET1 / RFU, CNOT2 / Fold change vs veh, CNOT2 / RFU, ZNF268 / Fold change vs veh, ZNF268 / Fold change vs veh, ZNF507 / RFU, DGCR2 / Fold change vs veh, DGCR2 / RFU, WDSUB1 / Fold change vs veh, WDSUB1 / Fold change vs veh, HSP90B1 /// MIR3652 / RFU, ADSS / Fold change vs veh, ADSS / RFU, GK / Fold change vs veh, GK / RFU, ZNF148 / Fold change vs veh, ZNF148 / RFU, TAF9 / Fold change vs veh, TAF9 / RFU, SLC1A5 / Fold change vs veh, SLC1A5 / RFU, SLMO2 / Fold change vs veh, SLMO2 / RFU, ABCC4 / Fold change vs veh, ABCC4 / RFU, LOC101060439 /// RAP1B / Fold change vs veh, LOC101060439 /// RAP1B / RFU, RFX7 / Fold change vs veh, RFX7 / RFU, GTPBP10 / Fold change vs veh, GTPBP10 / RFU, CNEP1R1 / Fold change vs veh, CNEP1R1 / RFU, BIVM-ERCC5 /// ERCC5 / Fold change vs veh, BIVM-ERCC5 /// ERCC5 / RFU, ILF3 / Fold change vs veh, ILF3 / RFU 11762660_at / Fold change /veh 11762660_at / RFU VCAN (11757783_s_at) / Fold change /veh VCAN (11757783_s_at) / RFU DDX43 (11728927_at) / Fold change /veh DDX43 (11728927_at) / RFU KRT8 (11758188_x_at) / Fold change /veh KRT8 (11758188_x_at) / RFU NKD1 (11759106_at) / Fold change /veh NKD1 (11759106_at) / RFU SRD5A1 (11742802_a_at) / Fold change /veh SRD5A1 (11742802_a_at) / RFU TPSAB1 /// TPSB2 (11721975_s_at) / Fold change /veh TPSAB1 /// TPSB2 (11721975_s_at) / RFU GSTM3 (11746129_a_at) / Fold change /veh GSTM3 (11746129_a_at) / RFU IL23R (11737362_x_at) / Fold change /veh IL23R (11737362_x_at) / RFU TMEM51 (11727254_a_at) / Fold change /veh TMEM51 (11727254_a_at) / RFU PIWIL2 (11732686_x_at) / Fold change /veh PIWIL2 (11732686_x_at) / RFU ORM1 (11744905_x_at) / Fold change /veh ORM1 (11744905_x_at) / RFU CCDC152 (11743942_at) / Fold change /veh CCDC152 (11743942_at) / RFU ECM1 (11717891_a_at) / Fold change /veh ECM1 (11717891_a_at) / RFU IL23R (11748794_a_at) / Fold change /veh IL23R (11748794_a_at) / RFU TNFAIP8L3 (11732012_x_at) / Fold change /veh TNFAIP8L3 (11732012_x_at) / RFU MBOAT4 (11741988_at) / Fold change /veh MBOAT4 (11741988_at) / RFU 11764193_at / Fold change /veh 11764193_at / RFU TMEM53 (11763286_at) / Fold change /veh TMEM53 (11763286_at) / RFU MAGEB2 (11727129_at) / Fold change /veh MAGEB2 (11727129_at) / RFU TMEM200A (11744735_a_at) / Fold change /veh TMEM200A (11744735_a_at) / RFU CCDC152 (11751479_a_at) / Fold change /veh CCDC152 (11751479_a_at) / RFU FAM211A (11726209_a_at) / Fold change /veh FAM211A (11726209_a_at) / RFU RGS16 (11746705_a_at) / Fold change /veh RGS16 (11746705_a_at) / RFU VCAN (11755009_s_at) / Fold change /veh VCAN (11755009_s_at) / RFU RHOB (11743442_s_at) / Fold change /veh RHOB (11743442_s_at) / RFU RGS16 (11720943_a_at) / Fold change /veh RGS16 (11720943_a_at) / RFU RGS16 (11720944_at) / Fold change /veh RGS16 (11720944_at) / RFU, VPS4B / Fold change vs veh, VPS4B / RFU, CREB1 / Fold change vs veh, CREB1 / RFU, DNAJC13 / Fold change vs veh, DNAJC13 / RFU, GNAQ / Fold change vs veh, GNAQ / RFU, CDK5R1 / Fold change vs veh, CDK5R1 / RFU, ZRANB3 / Fold change vs veh, ZRANB3 / RFU, CUL4A / Fold change vs veh, CUL4A / RFU, CCNY / Fold change vs veh, CCNY / RFU, UFL1 / Fold change vs veh, UFL1 / RFU, COG3 / Fold change vs veh, COG3 / RFU, DIAPH2 / Fold change vs veh, DIAPH2 / RFU, SKA2 / Fold change vs veh, SKA2 / RFU, AFF3 / Fold change vs veh, AFF3 / RFU, LMF1 / Fold change vs veh, LMF1 / RFU, IPO11 / Fold change vs veh, IPO11 / RFU, DFFB / Fold change vs veh, DFFB / RFU, FOXP1 / Fold change vs veh, FOXP1 / RFU, CARD8 / Fold change vs veh, CARD8 / RFU, STRN3 / Fold change vs veh, STRN3 / RFU, ADK / Fold change vs veh, ADK / RFU, RASSF2 / Fold change vs veh, RASSF2 / RFU, WIPF1 / Fold change vs veh, WIPF1 / RFU, LARP1B / Fold change vs veh, LARP1B / RFU, RASA1 / Fold change vs veh, RASA1 / RFU, RB1 / Fold change vs veh, RB1 / RFU, PPFIA1 / Fold change vs veh, PPFIA1 / RFU, MAT2A / Fold change vs veh, MAT2A / RFU, CCT5 / Fold change vs veh, CCT5 / RFU, WDR92 / Fold change vs veh, WDR92 / RFU, CUX1 / Fold change vs veh, CUX1 / RFU, TTC7A / Fold change vs veh, TTC7A / RFU, TMEM135 / Fold change vs veh, TMEM135 / RFU, DEPTOR / Fold change vs veh, DEPTOR / RFU, CPM / Fold change vs veh, CPM / RFU, DNAJB6 / Fold change vs veh, DNAJB6 / RFU, CACNA2D3 / Fold change vs veh, CACNA2D3 / RFU, DTX4 / Fold change vs veh, DTX4 / RFU, TFCP2 / Fold change vs veh, TFCP2 / RFU, GMCL1 /// GMCL1P1 / Fold change vs veh, GMCL1 /// GMCL1P1 / RFU, AEBP2 / Fold change vs veh, AEBP2 / RFU, SNHG1 /// SNORD22 /// SNORD25 /// SNORD26 /// SNORD27 /// SNORD28 /// SNORD29 /// SNORD31 / Fold change vs veh, SNHG1 /// SNORD22 /// SNORD25 /// SNORD26 /// SNORD27 /// SNORD28 /// SNORD29 /// SNORD31 / Fold change (Aza/veh), C12orf56 (ProbeSet 11735607_a_at) / Fold change (ACY-1035/veh), C12orf56 (ProbeSet 11735607_a_at) / Fold change (Aza/veh), FGFR1OP (ProbeSet 11751329_s_at) / Fold change (ACY-1035/veh), FGFR1OP (ProbeSet 11751329_s_at) / Fold change (Aza/veh), VPS36 (ProbeSet 11739960_a_at) / Fold change (ACY-1035/veh), VPS36 (ProbeSet 11739960_a_at) / RFU SYPL1 (11715823_x_at) / Fold change /veh SYPL1 (11715823_x_at) / RFU IGFBP7 (11715501_s_at) / Fold change /veh IGFBP7 (11715501_s_at) / RFU REEP3 (11722064_at) / Fold change /veh REEP3 (11722064_at) / RFU IGLL1 (11728026_x_at) / Fold change /veh IGLL1 (11728026_x_at): dose or concentration left out as unconfirmed", "details": "MV-4-11 cells, 48 hours"}
{"smiles": "Nc1ccc(-c2cccs2)cc1NC(=O)c1ccc2c(c1)cc(C1CC1)n2CCN1CCOCC1", "note": "[ACY-1035]", "values": [{"measurement": "Fold change /veh TMEM136 (11760407_x_at)", "result": 1.12}]}
